Tests used:
[1] = system: human lung cancer cell line NCI-H460; assay: Cell growth inhibition assay (MTT), NCI-H460; type: cell-based; settings: NCI-H460 cells, 72 hours, read-out: GI50 value (50% growth inhibitory concentration)
Method: (§1) A cell growth inhibition assay was performed using two types of cells (human breast cancer cell line SK-BR-3 and human lung cancer cell line NCI-H460).
(§2) Cells of each type were suspended in a medium and seeded into a 96-well multi-well plate at 2000 cells/150 μL/well in the case of SK-BR-3 and at 500 cells/150 μL/well in the case of NCI-H460. Compound (I) was dissolved in DMSO, and this was diluted with medium to prepare a sample solution (DMSO concentration: 0.5% or less). On the day following the seeding, 50 μL of DMSO-containing medium to which the test compound was not added (hereinafter called DMSO diluted solution; DMSO concentration: 0.5% or less) or 50 μL of the sample solution was further added to the cells. An MTT assay was performed immediately after and 72 hours after adding the sample solution or the DMSO diluted solution to the cells. The MTT assay was performed as follows.
(§3) 5 mg/mL of an MTT (3-(4,5-dimethylthiazol-2-yl)-2,5-diphenyltetrazolium bromide) solution was added at 20 μL per well. Thereafter, the plate was incubated at 37° C. in 5% CO2 for four hours. The plate was centrifuged at 1200 rpm for five minutes, and then the culture supernatant was removed by suction using a dispenser. DMSO was added at 150 μL per well, and the generated formazan was dissolved. […] The absorbance of each well was measured using a plate reader at an OD of 540 nm with a reference of 660 nm. […]

[2] = system: human breast cancer cell line SK-BR-3; assay: Cell growth inhibition assay (MTT), SK-BR-3; type: cell-based; settings: SK-BR-3 cells, 72 hours, read-out: GI50 value (50% growth inhibitory concentration)
Method: as §1, §2, §3

## CNC(=O)CC1=Cc2nn(Cc3ncc(C)c(OC)c3Cl)c3nc(N)nc(c23)SC1 [Compound (1), 2-{4-amino-2-[(3-chloro-4-methoxy-5-methylpyridin-2-yl)methyl]-2,7-dihydro-6-thia-1,2,3,5-tetraazabenzo[cd]azulen-8-yl}-N-methylacetamide]
[1]
  GI50: 26 nM
[2]
  GI50: 13 nM

From US8846703B2, “Crystal of a free tricyclic pyrazolopyrimidine derivative” (Daiichi Sankyo Company, Limited, priority 2010, dated 2014)
